According to US10294202B2, “Pyrrolidinones as herbicides” (FMC Corporation, priority 2013, dated 2019):

How the values were obtained:
pigweed = experiment: Test A pre-/postemergence herbicide test; format: in vivo, Amaranthus retroflexus
Procedure, shortened: (§1)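 Both application timings used compounds in a non-phytotoxic solvent plus surfactant. Pre-emergence: soil sprayed directly after seeding into loam/sand. Post-emergence: foliage of 2–10 cm seedlings (1–2 leaves) sprayed. Injury rated ~10 days later, 0–100.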

wheat = experiment: Test A pre-/postemergence herbicide test; format: in vivo, Triticum aestivum
Procedure, shortened: as §1

velvetleaf = experiment: Test A pre-/postemergence herbicide test; format: in vivo, Abutilon theophrasti; details: for Plant response rating, Velvetleaf: 0 to 100 scale
Procedure, shortened: as §1

crabgrass, large = experiment: Test A pre-/postemergence herbicide test; format: in vivo, Digitaria sanguinalis
Procedure, shortened: as §1

morningglory = experiment: Test A pre-/postemergence herbicide test; format: in vivo, Ipomoea spp.
Procedure, shortened: as §1

corn = experiment: Test A pre-/postemergence herbicide test; format: in vivo, Zea mays
Procedure, shortened: as §1

barnyardgrass [1] = experiment: Test A pre-/postemergence herbicide test; format: in vivo, Echinochloa crus-galli
Procedure, shortened: as §1

giant foxtail = experiment: Test A pre-/postemergence herbicide test; format: in vivo, Setaria faberii
Procedure, shortened: as §1

ducksalad = experiment: Test B flooded paddy test; format: in vivo, Heteranthera limosa; details: 1000 g ai/ha, Flood; scale of 0 to 100 where 0 is no effect and 100 is complete control
Procedure, shortened: (§2)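 First, plants reach the 2-leaf stage; next, pots are flooded to 3 cm and compound is delivered into the water; finally, after 13 to 15 greenhouse days at constant depth, injury is graded visually from 0 to 100 against controls.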

rice = experiment: Test B flooded paddy test; format: in vivo, Oryza sativa; details: 1000 g ai/ha, Flood; scale of 0 to 100 where 0 is no effect and 100 is complete control
Procedure, shortened: as §2

barnyardgrass [2] = experiment: Test B flooded paddy test; format: in vivo, Echinochloa crus-galli; details: 1000 g ai/ha, Flood; scale of 0 to 100 where 0 is no effect and 100 is complete control
Procedure, shortened: as §2

sedge, umbrella = experiment: Test B flooded paddy test; format: in vivo, Cyperus difformis; details: 1000 g ai/ha, Flood; scale of 0 to 100 where 0 is no effect and 100 is complete control
Procedure, shortened: as §2

[3] = Postemergence, 125 g ai/ha, 0 to 100 scale, 0 is no effect, 100 is complete control
[4] = Postemergence, 500 g ai/ha, 0 to 100 scale (0 no effect, 100 complete control)
[5] = Preemergence, 125 g ai/ha, 0 to 100 scale where 0 is no effect and 100 is complete control
[6] = preemergence, 500 g ai/ha, 0 to 100 scale, 0 is no effect and 100 is complete control
[7] = 125 g ai/ha, visual rating, 0 to 100 scale, 0 no effect, 100 complete control, approximately 10 days, preemergence
[8] = Postemergence, 125 g ai/ha, 0 to 100 scale, 0 no effect, 100 complete control
[9] = preemergence, 500 g ai/ha, 0 to 100 scale

Compound: O=C1NCC(c2ccc(C(F)(F)F)cc2F)C1C(=O)Nc1cccc(F)c1F (racemic) [Compound 260]
- Plant response rating, Pigweed (pigweed; [3]): 60
- Plant response rating, Pigweed (pigweed; [4]): 70
- Plant response rating, Pigweed (pigweed; [5]): 60
- Plant response rating, Pigweed (pigweed; [6]): 80
- Plant response rating, Wheat (wheat; [3]): 0
- Plant response rating, Wheat (wheat; [4]): 0
- Plant response rating, Wheat (wheat; [5]): 0
- Plant response rating, Wheat (wheat; [6]): 0
- Plant response rating, Velvetleaf (velvetleaf; preemergence, 500 g ai/ha, 0 is no effect and 100 is complete control): 40
- Plant response rating, Crabgrass, Large (crabgrass, large; [3]): 90
- Plant response rating, Crabgrass, Large (crabgrass, large; [4]): 90
- Plant response rating, Crabgrass, Large (crabgrass, large; [5]): 90
- Plant response rating, Crabgrass, Large (crabgrass, large; [6]): 90
- Plant response rating, Morningglory (morningglory; [3]): 0
- Plant response rating, Morningglory (morningglory; [4]): 50
- Plant response rating, Morningglory (morningglory; [5]): 20
- Plant response rating, Morningglory (morningglory; [6]): 50
- Plant response rating, Corn (corn; [3]): 0
- Plant response rating, Corn (corn; [4]): 0
- Plant response rating, Corn (corn; [5]): 0
- Plant response rating, Corn (corn; [6]): 10
- Plant response rating, Barnyardgrass (barnyardgrass [1]; [3]): 70
- Plant response rating, Barnyardgrass (barnyardgrass [1]; [4]): 80
- Plant response rating, Barnyardgrass (barnyardgrass [1]; [5]): 70
- Plant response rating, Barnyardgrass (barnyardgrass [1]; [6]): 80
- Plant response rating, Foxtail, Giant (giant foxtail; [3]): 80
- Plant response rating, Foxtail, Giant (giant foxtail; [4]): 90
- Plant response rating, Foxtail, Giant (giant foxtail; [5]): 80
- Plant response rating, Foxtail, Giant (giant foxtail; [6]): 90
- Plant response rating, Ducksalad (ducksalad): 95
- Plant response rating, Rice (rice): 0
- Plant response rating, Barnyardgrass (barnyardgrass [2]): 0
- Plant response rating, Sedge, Umbrella (sedge, umbrella): 0

Compound: O=C1NCC(c2ccc3ccccc3c2)C1C(=O)Nc1ccccc1F (racemic) [Compound 115]
- Plant response rating, Pigweed (pigweed; [7]): 0
- Plant response rating, Pigweed (pigweed; [8]): 0
- Pigweed plant response rating (0 to 100 scale, 0 is no effect, 100 is complete control) (pigweed; Postemergence, 500 g ai/ha): 0
- Plant response rating, Pigweed (pigweed; [9]): 0
- Plant response rating, Wheat (wheat; [7]): 0
- Plant response rating, Wheat (wheat; [8]): 0
- Wheat plant response rating (0 to 100 scale, 0 is no effect, 100 is complete control) (wheat; Postemergence, 500 g ai/ha): 0
- Plant response rating, Wheat (wheat; [9]): 0
- Plant response rating, Velvetleaf (velvetleaf; 125 g ai/ha, visual rating, 0 no effect, 100 complete control, approximately 10 days, preemergence): 0
- Plant response rating, Velvetleaf (velvetleaf; Postemergence, 125 g ai/ha, 0 no effect, 100 complete control): 0
- Velvetleaf plant response rating (0 to 100 scale, 0 is no effect, 100 is complete control) (velvetleaf; Postemergence, 500 g ai/ha): 0
- Plant response rating, Velvetleaf (velvetleaf; preemergence, 500 g ai/ha): 0
- Plant response rating, Crabgrass, Large (crabgrass, large; [7]): 70
- Plant response rating, Crabgrass, Large (crabgrass, large; [8]): 0
- Crabgrass, Large plant response rating (0 to 100 scale, 0 is no effect, 100 is complete control) (crabgrass, large; Postemergence, 500 g ai/ha): 50
- Plant response rating, Crabgrass, Large (crabgrass, large; [9]): 80
- Plant response rating, Morningglory (morningglory; [7]): 0
- Plant response rating, Morningglory (morningglory; [8]): 0
- Morningglory plant response rating (0 to 100 scale, 0 is no effect, 100 is complete control) (morningglory; Postemergence, 500 g ai/ha): 0
- Plant response rating, Morningglory (morningglory; [9]): 0
- Plant response rating, Corn (corn; [7]): 0
- Plant response rating, Corn (corn; [8]): 0
- Plant response rating, Corn (corn; [4]): 0
- Plant response rating, Corn (corn; [9]): 0
- Plant response rating, Barnyardgrass (barnyardgrass [1]; [7]): 0
- Plant response rating, Barnyardgrass (barnyardgrass [1]; [8]): 10
- Plant response rating, Barnyardgrass (barnyardgrass [1]; [4]): 50
- Plant response rating, Barnyardgrass (barnyardgrass [1]; preemergence, 500 g ai/ha, 0 to 100 scale (0 no effect, 100 complete control)): 50
- Plant response rating, Foxtail, Giant (giant foxtail; [7]): 20
- Plant response rating, Foxtail, Giant (giant foxtail; [8]): 0
- Foxtail, Giant plant response rating (0 to 100 scale, 0 is no effect, 100 is complete control) (giant foxtail; Postemergence, 500 g ai/ha): 10
- Plant response rating, Foxtail, Giant (giant foxtail; [9]): 20
- Plant response rating, Ducksalad (ducksalad): 90
- Plant response rating, Rice (rice): 0
- Plant response rating, Barnyardgrass (barnyardgrass [2]): 20
- Plant response rating, Sedge, Umbrella (sedge, umbrella): 0
